In patent US11518764B2, “Substituted heteroaryls as inhibitors of the BCL6 BTB domain protein-protein interaction” (Ontario Institute for Cancer Research (OICR), priority 2018, dated 2022):
pEC50, pIC50, pKd: −log10 of the molar value. Like-named read-outs stand apart in the source and are kept apart here.

Columns and labels:
BCL6 BTB domain = BCL6 BTB domain (Homo sapiens (Human), UniProt P41182); test: Surface plasmon resonance (SPR) assay; format: binding; conditions: BCL6 BTB domain captured on SA chip, single cycle kinetics
[1] = test system: BCL6 reporter construct (3xBCL6-TK-Luc) in SuDHL4 cells; test: Cell-based luciferase assay; conditions: for EC50: Homo sapiens, SU-DHL-4, 48 h, read-out: Luciferase-Assay EC50, uM), SuDHL4-3xBCL6-TK-Luc cells, two days, high dose 10 uM
Summary of the method: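 SuDHL4 cells stably carrying a 3×BCL6-site TK-promoter firefly luciferase reporter, seeded at 15,000 cells/well, were dosed over a 10-point range (top 10 uM) and grown two days at 37 °C, 5% CO2. Luminescence then read after adding neolite reagent at room temperature.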

Karpas422 cells = test: Tumor cell growth inhibition assay; format: cell-based; conditions: for IC50: Homo sapiens, KARPAS-422, 144 h, read-out: Tumor Growth Inhibition in Karpas-422 (IC50, uM), Karpas422 cells, six days, ATPlite; for pIC50: read-out: Tumor Growth Inhibition in Karpas-422 (IC50), Karpas422 cells, six days, ATPlite
Summary of the method: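 Growth inhibition was measured by ATPlite luminescence after six days of culture at 37° C. in 5% CO2. Karpas422 cells were seeded at 2,000 per well in Alpha-MEM plus 10% FBS. Compounds were given as a 10-point concentration series with a highest dose of 5 uM.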

| Structure (SMILES) | pKd (BCL6 BTB domain) | EC50 [1] | IC50 (Karpas422 cells) | pEC50 ([1]; read-out: Luciferase-Assay EC50, SuDHL4-3xBCL6-TK-Luc cells, two days, high dose 10 uM) | pIC50 (Karpas422 cells) |
| --- | --- | --- | --- | --- | --- |
| Cn1cnc2c(c(-c3cc(Cl)c(O)c(C(N)=O)c3)cn2CC(=O)Nc2cc(N3CCOC4CCCC43)ncc2Cl)c1=O (stereo not drawn) [Compound I-280] | 7.00 | 1.4 µM | 0.821 µM |  |  |
| CC(C)[C@H]1CN(C)CCN1c1cc(NC(=O)Cn2cc(-c3cc(C(N)=O)c(O)c(F)c3F)c3c(=O)n(C)cnc32)c(Cl)cn1 [Compound I-361] | 7.15 | 1.33 µM | 1.37 µM |  |  |
| CN1CC2CN(c3cc(NC(=O)Cn4cc(-c5cc(Cl)c(O)c(C(N)=O)c5)c5c(=O)n(C)cnc54)c(Cl)cn3)CCN2C1=O (stereo not drawn) [Compound I-238] | 7.92 | 0.588 µM | 0.291 µM |  |  |
| CN1CCC2(C1)CN(c1cc(NC(=O)Cn3cc(-c4cc(Cl)c(O)c(C(N)=O)c4)c4c(=O)n(C)cnc43)c(Cl)cn1)C2 [Compound I-479] | 7.79 | 1.43 µM | 0.778 µM |  |  |
| Cn1cnc2c(c(-c3cc(Cl)c(O)c(C(N)=O)c3)cn2CC(=O)Nc2cc(N3C4CCC3CN(CC(F)(F)F)C4)ncc2Cl)c1=O [Compound I-466] | 6.28 | 3.81 µM | 0.773 µM |  |  |
| Cn1cnc2c(c(-c3cc(F)c(O)c(C(N)=O)c3)cn2CC(=O)Nc2cc(N3C[C@H]4CC[C@@H](C3)N4CC(F)(F)F)ncc2Cl)c1=O [Compound I-476] | 7.86 | 0.159 µM | 0.118 µM |  |  |
| Cn1cnc2c(c(-c3cc(Cl)c(O)c(C(N)=O)c3)cn2CC(=O)Nc2cc(N3CCOC(C(F)(F)F)C3)ncc2Cl)c1=O (stereo not drawn) [Compound I-258] | 7.00 |  |  | 6.26 | 6.31 |
| Cc1nc2c(c(-c3cc(F)c(O)c(C(N)=O)c3)cn2CC(=O)Nc2cc(N3CC(C)(C)N(C)C(C)(C)C3)ncc2Cl)c(=O)n1C [Compound I-250] | 7.79 | 0.0822 µM | 0.0902 µM |  |  |
| Cc1nc2c(c(-c3cc(Cl)c(O)c(C(N)=O)c3)cn2CC(=O)Nc2cc(N3CCOC[C@@H]3C)nc(F)c2Cl)c(=O)n1C [Compound I-315] | 7.85 | 0.114 µM | 0.147 µM |  |  |
| COCCN1CCN(c2cc(NC(=O)Cn3cc(-c4cc(F)c(O)c(C(N)=O)c4)c4c(=O)n(C)cnc43)c(Cl)cn2)[C@@H](C)C1 [Compound I-416] | 8.56 | 0.0787 µM | 0.0592 µM |  |  |
| COCCN1CCN(c2cc(NC(=O)Cn3cc(-c4cc(F)c(O)c(C(N)=O)c4)c4c(=O)n(C)cnc43)c(Cl)c(F)n2)[C@@H](C)C1 [Compound I-448] | 8.47 | 0.0483 µM | 0.0446 µM |  |  |
| Cn1cnc2c(c(-c3cc(Cl)c(O)c(C(N)=O)c3)cn2CC(=O)Nc2cc(N3CCN4C(=O)OCC4C3)ncc2Cl)c1=O (stereo not drawn) [Compound I-237] | 7.75 | 1.04 µM | 1.25 µM |  |  |
| CO[C@@H]1CCN(c2cc(NC(=O)Cn3cc(-c4cc(C(N)=O)c(O)c(F)c4F)c4c(=O)n(C)cnc43)c(Cl)cn2)C1 [Compound I-354] | 7.26 | 1.02 µM | 1.27 µM |  |  |
| Cc1nc2c(c(-c3cc(Cl)c(O)c(C(N)=O)c3)cn2CC(=O)Nc2cc(N3CCN(C)C[C@@H]3C)ncc2Cl)c(=O)[nH]1 [Compound I-128] | 7.92 | 0.173 µM | 0.074 µM |  |  |
| Cn1cnc2c(c(-c3cc(F)c(O)c(C(N)=O)c3)cn2CC(=O)Nc2cc(N3CCOCC3)c(F)cc2Cl)c1=O [Compound I-219] | 7.15 | 0.535 µM | 0.216 µM |  |  |
| CO[C@H]1CN(c2cc(NC(=O)Cn3cc(-c4cc(C(N)=O)c(O)c(F)c4F)c4c(=O)n(C)cnc43)c(Cl)cn2)C[C@H]1F [Compound I-364] | 7.60 | 0.819 µM | 1.04 µM |  |  |
| Cn1cnc2c(c(-c3cc(C(N)=O)c(O)c(F)c3F)cn2CC(=O)Nc2cc(N3CC4CC3CN4CC(F)(F)F)ncc2Cl)c1=O (stereo not drawn) [Compound I-363] | 7.23 | 0.931 µM | 1.19 µM |  |  |
| COc1c(O)c(C(N)=O)cc(-c2cn(CC(=O)Nc3cc(N4C[C@@H](C)O[C@@H](C)C4)ncc3Cl)c3ncn(C)c(=O)c23)c1F [Compound I-172] | 6.78 | 0.797 µM | 1.34 µM |  |  |

| Structure (SMILES) | pKd (BCL6 BTB domain) | EC50 [1] | IC50 (Karpas422 cells) | pEC50 ([1]; read-out: Luciferase-Assay EC50, SuDHL4-3xBCL6-TK-Luc cells, two days, high dose 10 uM) | pIC50 (Karpas422 cells) |
| --- | --- | --- | --- | --- | --- |
| CCN1CCN(c2cc(NC(=O)Cn3cc(-c4cc(Cl)c(O)c(C(N)=O)c4)c4c(=O)n(C)cnc43)c(Cl)cn2)[C@@H](C)C1 [Compound I-331] | 7.75 | 0.254 µM | 0.176 µM |  |  |
| Cn1cnc2c(c(-c3cc(Cl)c(O)c(C(N)=O)c3)cn2CC(=O)Nc2c(Cl)cnc(N3CCOCC3)c2F)c1=O [Compound I-185] | 6.93 | 3.44 µM |  |  | 5.66 |
| Cn1cnc2c(c(-c3cc(C(N)=O)c(O)c(F)c3F)cn2CC(=O)Nc2cc(N3CC4COCC4C3)ncc2Cl)c1=O (stereo not drawn) [Compound I-299] | 7.50 | 0.521 µM | 0.685 µM |  |  |
| C[C@H]1CN(C)CCN1c1cc(NC(=O)Cn2cc(-c3cc(C(N)=O)c(O)c(F)c3F)c3c(=O)n(CC#Cc4cnn(C)c4)cnc32)c(Cl)cn1 [Compound I-304] | 8.18 | 0.228 µM | 0.314 µM |  |  |
| CN(C)c1cc(NC(=O)Cn2cc(-c3cc(Cl)c(O)c(C(N)=O)c3)c3c(=O)n(C)c(NCc4ccc(F)cc4)nc32)c(Cl)cn1 [Compound I-129] | 7.36 | 2.62 µM | 0.866 µM |  |  |
| Cn1cnc2c(c(-c3cc(Cl)c(O)c(C(N)=O)c3)cn2CC(=O)Nc2cc(N3C4CCC3CC4)ncc2Cl)c1=O [Compound I-125] | 7.52 | 3.76 µM | 0.407 µM |  |  |
| Cn1cc2cc(NC(=O)Cn3cc(-c4cc(Cl)c(O)c(C(N)=O)c4)c4c(=O)n(C)cnc43)c(Cl)cc2n1 [Compound I-182] | 7.06 | 1.41 µM | 1.03 µM |  |  |
| C[C@H]1COCCN1c1cc(NC(=O)Cn2cc(-c3cc(F)c(O)c(C(N)=O)c3)c3c(=O)n(C)c(C(F)(F)F)nc32)c(Cl)cn1 [Compound I-234] | 7.31 | 0.441 µM | 0.255 µM |  |  |
| Cn1cnc2c(c(-c3cc(F)c(O)c(C(N)=O)c3)cn2CC(=O)Nc2cc(N3CC4CCC(C3)O4)ncc2Cl)c1=O [Compound I-176] | 8.22 | 0.239 µM | 0.137 µM |  |  |
| CO[C@H]1CN(c2cc(NC(=O)Cn3cc(-c4cc(Cl)c(O)c(C(N)=O)c4)c4c(=O)n(C)c(C(F)(F)F)nc43)c(Cl)c(F)n2)C[C@H]1F [Compound I-389] | 6.54 | 2.01 µM | 1.46 µM |  |  |
| CN1CC2CCC(C1)N2c1cc(NC(=O)Cn2cc(-c3cc(Cl)c(O)c(C(N)=O)c3)c3c(=O)n(C)c(C(F)(F)F)nc32)c(Cl)cn1 [Compound I-396] | 6.65 | 0.683 µM | 0.749 µM |  |  |
| COCCN1CCN(c2cc(NC(=O)Cn3cc(-c4cc(C(N)=O)c(O)c(F)c4F)c4c(=O)n(C)cnc43)c(Cl)cn2)[C@@H](C)C1 [Compound I-414] | 7.75 | 0.374 µM | 0.455 µM |  |  |
| CC(C)[C@H]1CN(c2cc(NC(=O)Cn3cc(-c4cc(Cl)c(O)c(C(N)=O)c4)c4c(=O)n(C)cnc43)c(Cl)cn2)CCO1 [Compound I-204] | 7.45 | 0.251 µM | 0.146 µM |  |  |
| Cn1ccc2c(c(-c3cc(Cl)c(O)c(C(N)=O)c3)cn2CC(=O)Nc2cc(N3CCOCC3)ncc2Cl)c1=O [Compound I-141] | 6.58 | 1.83 µM | 1.02 µM |  |  |
| C[C@H]1COCCN1c1cc(NC(=O)Cn2cc(-c3cc(F)c(O)c(C(N)=O)c3)c3c(=O)n(C)cnc32)c(Cl)c(F)n1 [Compound I-319] | 8.40 | 0.104 µM | 0.0994 µM |  |  |
| Cc1nc2cc(Cl)c(NC(=O)Cn3cc(-c4cc(F)c(O)c(C(N)=O)c4)c4c(=O)n(C)cnc43)cc2s1 [Compound I-160] | 7.41 | 0.396 µM | 0.507 µM |  |  |
| C[C@H]1COCCN1c1cc(NC(=O)Cn2cc(-c3cc(Cl)c(O)c(C(N)=O)c3)c3c(=O)n(C)cnc32)c(Cl)c(F)n1 [Compound I-235] | 7.85 | 0.139 µM | 0.138 µM |  |  |
